What is called Emax is the maximal effect, on the per cent scale that the assay sets. What is called EC50 is the concentration giving half of the maximal effect.

Structures can show the parent of a compound that is named as a salt.

In this test the target is T1, hGIP-R (Homo sapiens, UniProt P48546).
T1 construct: expressed in transfected cells; host or cells: HEK-293 clonal cell lines
T1 sequence (P48546 22-466): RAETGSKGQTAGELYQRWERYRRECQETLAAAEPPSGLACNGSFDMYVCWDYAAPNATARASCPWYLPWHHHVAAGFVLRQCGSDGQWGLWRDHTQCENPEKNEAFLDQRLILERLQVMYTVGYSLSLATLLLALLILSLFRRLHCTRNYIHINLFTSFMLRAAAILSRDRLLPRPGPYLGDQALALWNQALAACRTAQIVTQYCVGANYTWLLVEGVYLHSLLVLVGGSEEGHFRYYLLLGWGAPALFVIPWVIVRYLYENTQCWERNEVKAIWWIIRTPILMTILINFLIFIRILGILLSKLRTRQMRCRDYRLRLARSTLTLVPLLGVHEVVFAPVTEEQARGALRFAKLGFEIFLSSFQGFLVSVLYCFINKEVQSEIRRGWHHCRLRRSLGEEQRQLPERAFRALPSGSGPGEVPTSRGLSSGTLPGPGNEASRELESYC
The experiment in a line: Functional hGIP-R Assay (cAMP formation, HTRF). The test is classed as cell-based. The following applies: for Emax: cAMP efficacy, percent of maximal response to GIP(1-42)OH, 37° C., 0.1% bovine casein, arithmetic mean ± SEM; for EC50: cAMP potency, HEK-293 cells expressing hGIP-R, incubated at 37° C. in the presence of 0.1% bovine casein, geometric mean, read-out: Human GIP-R EC50, nM (SEM, n). In a few lines: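 HEK-293 cells expressing hGIP-R were given a 20-point compound series in DMEM with 0.1% casein, 250 μM IBMX, 1% DMSO, 30 min at 37 °C. cAMP was read by HTRF against a standard curve, expressed as % of human GIP (1-42) OH maximum; EC50 and Emax came from four-parameter fits.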
Background: Changes in cAMP serve as a functional read-out for many G protein-coupled receptors.

With `[2H]C([2H])([2H])n1cc(C[C@H](C(=O)NC(C)(C)Cn2nc(C(F)(F)F)cc2-c2cnc(C(C)(C)O)nc2)N2CC[C@@]3(C[C@@H]3c3ccc(-c4cnc5nc(C)cn5c4)cc3Cl)C2=O)cn1` [Example 187, (R)-2-((1S,3R)-1-(2-chloro-4-(2-methylimidazo[1,2-a]pyrimidin-6-yl)phenyl)-4-oxo-5-azaspiro[2.4]heptan-5-yl)-N-(1-(5-(2-(2-hydroxypropan-2-yl)pyrimidin-5-yl)-3-(trifluoromethyl)-1H-pyrazol-1-yl)-2-methylpropan-2-yl)-3-(1-(methyl-d3)-1H-pyrazol-4-yl)propanamide], the Emax came to 84.6 ± 2.33% and the EC50 turned out to be 1.26 nM.

Turning to `[2H]C([2H])([2H])n1cc(C[C@H](C(=O)NC(C)(C)Cn2nc(C(F)(F)F)cc2-c2ccc(C(C)(C)O)nc2)N2CC[C@@]3(C[C@@H]3c3ccc(-c4cnc5nc(COC)cn5c4)cc3Cl)C2=O)cn1` [Example 188, (R)-2-((1S,3R)-1-(2-chloro-4-(2-(methoxymethyl)imidazo[1,2-a]pyrimidin-6-yl)phenyl)-4-oxo-5-azaspiro[2.4]heptan-5-yl)-N-(1-(5-(6-(2-hydroxypropan-2-yl)pyridin-3-yl)-3-(trifluoromethyl)-1H-pyrazol-1-yl)-2-methylpropan-2-yl)-3-(1-(methyl-d3)-1H-pyrazol-4-yl)propanamide], the Emax was 110 ± 4.51% and the EC50 was 0.265 nM.

On to `[2H]C([2H])([2H])n1cc(C[C@H](C(=O)NC(C)(C)Cn2nc(C(F)(F)F)cc2-c2ccc(C(C)(C)O)nc2)N2CC[C@@]3(C[C@@H]3c3ccc(-c4cnc5nn(CC)cc5c4)nc3C)C2=O)cn1` [Example 189, (R)-2-((1R,3R)-1-(6-(2-Ethyl-2H-pyrazolo[3,4-b]pyridin-5-yl)-2-methylpyridin-3-yl)-4-oxo-5-azaspiro[2.4]heptan-5-yl)-N-(1-(5-(6-(2-hydroxypropan-2-yl)pyridin-3-yl)-3-(trifluoromethyl)-1H-pyrazol-1-yl)-2-methylpropan-2-yl)-3-(1-(methyl-d3)-1H-pyrazol-4-yl)propanamide], for which the Emax worked out at 61 ± 0.6% and the EC50 was determined as 1.3 nM.

As for `[2H]C([2H])([2H])n1cc(C[C@H](C(=O)NC(C)(C)Cn2nc(C(F)(F)F)cc2-c2ccc(C(C)(C)O)nc2)N2CC[C@@]3(C[C@@H]3c3ccc(-c4cnc5nn(C6CC6)cc5c4)nc3C)C2=O)cn1` [Example 190, (R)-2-((1R,3R)-1-(6-(2-cyclopropyl-2H-pyrazolo[3,4-b]pyridin-5-yl)-2-methylpyridin-3-yl)-4-oxo-5-azaspiro[2.4]heptan-5-yl)-N-(1-(5-(6-(2-hydroxypropan-2-yl)pyridin-3-yl)-3-(trifluoromethyl)-1H-pyrazol-1-yl)-2-methylpropan-2-yl)-3-(1-(methyl-d3)-1H-pyrazol-4-yl)propanamide], the Emax came out at 80.2 ± 6.78% and the EC50 is 1.12 nM.

On to `[2H]C([2H])([2H])n1cc(C[C@H](C(=O)NC(C)(C)Cn2nc(C(F)(F)F)cc2-c2cnc(C(C)(C)O)nc2)N2CC[C@@]3(C[C@@H]3c3ccc(-c4cnc5nn(C6CC6)cc5c4)nc3C)C2=O)cn1` [Example 191, (R)-2-((1R,3R)-1-(6-(2-cyclopropyl-2H-pyrazolo[3,4-b]pyridin-5-yl)-2-methylpyridin-3-yl)-4-oxo-5-azaspiro[2.4]heptan-5-yl)-N-(1-(5-(2-(2-hydroxypropan-2-yl)pyrimidin-5-yl)-3-(trifluoromethyl)-1H-pyrazol-1-yl)-2-methylpropan-2-yl)-3-(1-(methyl-d3)-1H-pyrazol-4-yl)propanamide], for which the Emax came to 78.5 ± 0.865% and the EC50 was determined as 2.89 nM.

Regarding `[2H]C([2H])([2H])n1cc(C[C@H](C(=O)NC(C)(C)Cn2nc(C(F)(F)F)cc2-c2ccc(C(C)(C)O)nc2)N2CC[C@@]3(C[C@@H]3c3ccc(-c4cnc5nc(COC)cn5c4)nc3C3CC3)C2=O)cn1` [Example 192, (R)-2-((1R,3R)-1-(2-cyclopropyl-6-(2-(methoxymethyl)imidazo[1,2-a]pyrimidin-6-yl)pyridin-3-yl)-4-oxo-5-azaspiro[2.4]heptan-5-yl)-N-(1-(5-(6-(2-hydroxypropan-2-yl)pyridin-3-yl)-3-(trifluoromethyl)-1H-pyrazol-1-yl)-2-methylpropan-2-yl)-3-(1-(methyl-d3)-1H-pyrazol-4-yl)propanamide], the Emax was 129% and the EC50 came out at 0.0409 nM.

Regarding `[2H]C([2H])([2H])n1cc(C[C@H](C(=O)NC(C)(C)Cn2nc(C(F)(F)F)cc2-c2cnc(C(C)(C)O)nc2)N2CC[C@@]3(C[C@@H]3c3ccc(-c4cnc5nn(C)cc5c4)cc3Cl)C2=O)cn1` [Example 193, (R)-2-((1S,3R)-1-(2-chloro-4-(2-methyl-2H-pyrazolo[3,4-b]pyridin-5-yl)phenyl)-4-oxo-5-azaspiro[2.4]heptan-5-yl)-N-(1-(5-(2-(2-hydroxypropan-2-yl)pyrimidin-5-yl)-3-(trifluoromethyl)-1H-pyrazol-1-yl)-2-methylpropan-2-yl)-3-(1-(methyl-d3)-1H-pyrazol-4-yl)propanamide], the Emax stood at 85.5 ± 0.117% and the EC50 was 1.33 nM.

Regarding `[2H]C([2H])([2H])n1cc(C[C@H](C(=O)NC(C)(C)Cn2nc(C(F)(F)F)cc2-c2ccc(C(C)(C)O)nc2)N2CC[C@@]3(C[C@@H]3c3ccc(-c4cnc5nn(C)cc5c4)cc3Cl)C2=O)cn1` [Example 194, (R)-2-((1S,3R)-1-(2-chloro-4-(2-methyl-2H-pyrazolo[3,4-b]pyridin-5-yl)phenyl)-4-oxo-5-azaspiro[2.4]heptan-5-yl)-N-(1-(5-(6-(2-hydroxypropan-2-yl)pyridin-3-yl)-3-(trifluoromethyl)-1H-pyrazol-1-yl)-2-methylpropan-2-yl)-3-(1-(methyl-d3)-1H-pyrazol-4-yl)propanamide], the Emax came to 64.1 ± 0.489% and the EC50 stood at 0.567 nM.

As for `[2H]C([2H])([2H])n1cc(C[C@H](C(=O)NC(C)(C)Cn2nc(C(F)(F)F)cc2-c2ccc(C(C)(C)OP(=O)(O)O)nc2)N2CC[C@@]3(C[C@@H]3c3ccc(-c4cnc5nn(C)cc5c4)cc3Cl)C2=O)cn1` [Example 195, 2-(5-(1-(2-((R)-2-((1S,3R)-1-(2-Chloro-4-(2-methyl-2H-pyrazolo[3,4-b]pyridin-5-yl)phenyl)-4-oxo-5-azaspiro[2.4]heptan-5-yl)-3-(1-(methyl-d3)-1H-pyrazol-4-yl)propanamido)-2-methylpropyl)-3-(trifluoromethyl)-1H-pyrazol-5-yl)pyridin-2-yl)propan-2-yl dihydrogen phosphate, ammonia salt], the Emax is 88.8% and the EC50 was 2.36 nM.

For `Cc1nc(-c2cnc3nc(C4CC4)cn3c2)ccc1[C@H]1C[C@@]12CCN([C@H](Cc1cnn(C(F)F)c1)C(=O)NC(C)(C)Cn1nc(C(F)(F)F)cc1-c1cnc(C(C)(C)OP(=O)(O)O)nc1)C2=O` [Example 196, 2-(5-(1-(2-((R)-2-((1R,3R)-1-(6-(2-Cyclopropylimidazo[1,2-a]pyrimidin-6-yl)-2-methylpyridin-3-yl)-4-oxo-5-azaspiro[2.4]heptan-5-yl)-3-(1-(difluoromethyl)-1H-pyrazol-4-yl)propanamido)-2-methylpropyl)-3-(trifluoromethyl)-1H-pyrazol-5-yl)pyrimidin-2-yl)propan-2-yl dihydrogen phosphate, ammonia salt], the Emax is 95.7% and the EC50 is 0.601 nM.

With `Cc1nc(-c2cnc3nc(C4CC4)cn3c2)ccc1[C@H]1C[C@@]12CCN([C@H](Cc1cnn(C(F)F)c1)C(=O)NC(C)(C)Cn1nc(C(F)(F)F)cc1-c1ccc(C(C)(C)OP(=O)(O)O)nc1)C2=O` [Example 197, 2-(5-(1-(2-((R)-2-((1R,3R)-1-(6-(2-Cyclopropylimidazo[1,2-a]pyrimidin-6-yl)-2-methylpyridin-3-yl)-4-oxo-5-azaspiro[2.4]heptan-5-yl)-3-(1-(difluoromethyl)-1H-pyrazol-4-yl)propanamido)-2-methylpropyl)-3-(trifluoromethyl)-1H-pyrazol-5-yl)pyridin-2-yl)propan-2-yl dihydrogen phosphate, ammonia salt], the Emax is 119% and the EC50 worked out at 0.66 nM.

In the case of `[2H]C([2H])([2H])n1cc(C[C@H](C(=O)NC(C)(C)Cn2nc(C(F)(F)F)cc2-c2cnc(C(C)(C)OP(=O)(O)O)nc2)N2CC[C@@]3(C[C@@H]3c3ccc(-c4cnc5nn(C)cc5c4)cc3Cl)C2=O)cn1` [Example 198, 2-(5-(1-(2-((R)-2-((1S,3R)-1-(2-Chloro-4-(2-methyl-2H-pyrazolo[3,4-b]pyridin-5-yl)phenyl)-4-oxo-5-azaspiro[2.4]heptan-5-yl)-3-(1-(methyl-d3)-1H-pyrazol-4-yl)propanamido)-2-methylpropyl)-3-(trifluoromethyl)-1H-pyrazol-5-yl)pyrimidin-2-yl)propan-2-yl dihydrogen phosphate, ammonia salt], the maximum response (Emax) was 90.3% and the EC50 turned out to be 1.81 nM.

For the origin of these results see patent US20260108546A1 (ELI LILLY AND COMPANY, priority 2024, published 2026).
